Measurements taken from ChEMBL document CHEMBL3867448, “Targeted Isolation of Indolopyridoquinazoline Alkaloids from Conchocarpus fontanesianus Based on Molecular Networks” (2016).

Assays:
Candida albicans [1] = assay: Antifungal activity against Candida albicans DSY2621 by MTT assay; assay type: functional
Candida albicans [2] = assay: Antifungal activity against wild type Candida albicans CAF2-1 by MTT assay; assay type: functional

Row | SMILES | MIC (Candida albicans [1]) [µg] | MIC (Candida albicans [2]) [µg]
1 | COc1cccc2c3c(c(=O)[nH]c12)C=CC(C)(C)O3 | 15 | 
2 | CC1(C)C=Cc2c(O)nc3ccccc3c2O1 [FLINDERSINE] | 15 | 
3 | Clc1ccc(COC(Cn2ccnc2)c2ccc(Cl)cc2Cl)c(Cl)c1 (centres undefined) [MICONAZOLE] | 0.0006 | 0.0006
